Results published in US9326960B2, “Composition for preventing or treating eye diseases, containing S-allyl-L-cysteine as active ingredient, and pharmaceutical formulation containing same” (PHARMAKING CO., LTD., priority 2012, dated 2016).

Assays:
[1] = Suppressive activity against blue light-induced oxidation of A2E (cell-free, absorbance); settings: 20 μM A2E in PBS, blue light ca. 430 nm, compared to non-treated
Experimental: Assay of S-Allyl-Cysteine for Suppressive Activity Against Blue Light-Induced Oxidation of A2E S-Allyl-cysteine was assayed for the ability to suppress the blue light-induced oxidation of A2E. First, 100 μM A2E was diluted to 20 μM in phosphate buffered saline (PBS), and 200 μl of the dilution was placed in each well of 96-well plates. Then, a negative control, a positive control (lutein 20 μM), or predetermined concentrations of S-allyl-cysteine (1, 10, 100 μM) were added to the dilution, and mixed by pipetting. An LED lamp emitting blue light with a central wavelength of ca. 430 nm was operated above the microplates to induce photo-oxidation until the A2E absorbance was reduced by half. Absorbance was read on an ELISA before and after the induction of photo-oxidation. The measurements were applied to an A2E standard curve to obtain concentrations of A2E, and the difference in concentration before and after exposure to blue light was used to obtain the concentration of oxidized A2E. From the data, the inhibitory activity of the sample against A2E photo-oxidation was calculated according to the following Mathematical Formula 1. In Formula 1, Abs. means absorbance. [formula] A=Abs. of A2E−Abs. of A2E+blue light B={Abs. of A2E+sample)−Abs. of sample}−{(Abs. of A2E+sample+blue light)−(Abs. of sample−Abs. of sample+blue light)} In order to evaluate the inhibitory activity of S-allyl-L-cysteine against A2E photooxidation, concentrations of oxidized A2E were measured after exposure to blue radiation as described in Experimental Example 1, and the results are depicted in FIG. 1.

[2] = system: Human retinal pigment epithelial cell line (ARPE-19); test: Cytoprotective activity against blue light-induced apoptosis of A2E-accumulated ARPE-19 cells (MTT assay); format: cell-based; settings: A2E-accumulated ARPE-19 exposed to blue light; for increase of cell viability: compared to the negative control
From the text: The retinal pigment cell line used in experiments and analyses of the present invention arose from a retinal pigment epithelial cell line (ARPE-19: ATCC no. CRL-2302) purchased from the ATCC (American Type Culture Collection, Manassas Va.), and was maintained by passage as described in document (Sparrow, J. R. et al., A2E, alipofuscin fluorophore, in human retinal pigmented epithelial cells in culture. Invest Ophthalmol Vis Sci 1999, 40(12), 2988-95).
Briefly, the retinal pigment cell line was cultured in Dulbecco's modified Eagle's medium (DMEM, Gibco, USA) supplemented with antibiotics (Gibco, USA) including 100 U/ml penicillin, […] streptomycin, and amphotericin B, and 10% fetal bovine serum (Hyclone, USA) at 37° C. under 5% CO2 conditions. The cells were allowed to adhere to the bottom of the culture plate, and cultured, with passage by treatment with a mixture of 1:4 trypsin:10% fetal bovine serum (Gibco, USA)-supplemented medium upon confluence.
For use in experiments, the cells were seeded at a density of 5×10^4 cells/well into 6-well plates.
Cytoprotective Activity of S-Allyl-Cysteine Against Blue Light-Induced Apoptosis of A2E-Accumulated Human Retinal Pigment Epithelial Cell Line CARPE-19)
Human retinal pigment cell line (ARPE-19) was seeded at a density of 5×10^4 cells/well into 96-well plates, and incubated with 20 μM A2E for 7 days to accumulate A2E. Then, the cells were treated with a negative control, a positive control (lutein: 20 μM), or predetermined concentrations of S-allyl-cysteine (1, 10, 100 μM) before exposure to blue light as described above.
Thereafter, cell viability was measured using 3-(4,5-dimethylthiazol-2-yl)-2,5-diphenyltetrazoliumbromide (MTT) assay. An MTT assay is a standard colorimetric assay for assessing cell viability, usually in a lab. Generally, viable cells are counted using a hemocytometer, or by measuring optical density; however, this method requires too much time and labor for large numbers of cells, and is apt to yield inaccurate results. As an alternative, the MTT assay is designed such that the yellow substrate tetrazolium MTT is reduced by metabolically active cells, in part by the action of mitochondrial dehydrogenase enzymes, into purple formazan that can be solubilized and quantified by spectrophotometric means. This assay can analyze the proliferation behavior of large numbers of cells rapidly and accurately. […] More viable cells produce a greater amount of formazan crystals, recoding higher absorbance.
According to the MTT assay (Sigma-Aldrich Inc., St. Louis, Mo., U.S.A.), DMEM containing 0.5 mg/ml MTT was added to each well and incubated at 37° C. for 2 hrs in an incubator under dark conditions. […]

Row | SMILES | decrease of concentration of oxidized A2E ([1]; 1 μM S-allyl-cysteine) [%] | decrease of concentration of oxidized A2E ([1]; 10 μM S-allyl-cysteine) [%] | decrease of concentration of oxidized A2E ([1]; 100 μM S-allyl-cysteine) [%] | increase of cell viability ([2]; 1 μM) [%] | increase of cell viability ([2]; 10 μM) [%] | increase of cell viability ([2]; 100 μM) [%] | cell viability versus negative control (result in words) ([2]; lutein 20 μM)
1 | C=CCSC[C@H](N)C(=O)O [S-allyl-cysteine, S-allyl-L-cysteine] | 20 | 32 | 41 | 63 | 134 | 167 | –
2 | CC1=C[C@H](O)CC(C)(C)[C@H]1/C=C/C(C)=C/C=C/C(C)=C/C=C/C=C(C)/C=C/C=C(C)/C=C/C1=C(C)C[C@@H](O)CC1(C)C [positive control, lutein, reference compound] | – | – | – | – | – | – | significant difference in cell viability
